Measured values as given in US4404211A, “Analgesic mixture of nalbuphine and flurbiprofen” (E. I. Du Pont de Nemours and Company, priority 1982, dated 1983).

System: phenyl-p-benzoquinone induced writhing in mice
Assay: mouse antiphenylquinone (phenyl-p-benzoquinone induced) writhing test, oral, 20 min
Protocol: Male CF1 mice obtained from Charles River Breeding Laboratories, fasted for 16-22 hours and weighing 18-22 g at the time of testing are used throughout. All mice are dosed sequentially by the oral route with solutions of flurbiprofen and/or of nalbuphine hydrochloride. A dosing volume of 10 ml/kg is used for each sequential solution or suspension. […] All doses are coded and the test is performed under a code not known to the observer.
A stock solution of flurbiprofen is prepared by dissolving dry flurbiprofen powder with an equimolar amount of one molar sodium hydroxide and sufficient water to produce the required solution concentration. The acidity is adjusted with dilute hydrochloric acid to pH 9.0. All dosing solutions are prepared by dilution of the stock solution with distilled water; the vehicle control is distilled water.
Stock solutions of nalbuphine HCl are prepared by dissolving dry nalbuphine hydrochloride powder with distilled water. All dosing solutions are prepared by dilution of the stock solution with distilled water; the vehicle control is distilled water.
As indicated above, the standard procedure based upon the prevention of phenyl-p-benzoquinone induced writhing in mice is utilized to detect and quantify the analgetic activity of compositions containing nalbuphine and flurbiprofen.
Mice, intubated with various doses of nalbuphine hydrochloride, flurbiprofen, combined doses of nalbuphine hydrochloride and flurbiprofen,or vehicle, are injected intraperitoneally with a challenge dose of phenyl-p-benzoquinone 5 minutes prior to the designated observation period. […] For scoring purposes a "writhe" is indicated by whole body stretching or contraction of the abdomen; mice are observed 10 minutes for the presence or absence of writhing beginning 5 minutes after receiving the phenyl-p-benzoquinone dose. Each mouse is used only once, then discarded. […] This dosage as described herein is referred to as the ED50.
In order to study the interaction between nalbuphine and flurbiprofen, 5 precise dosage ratios of nalbuphine hydrochloride and flurbiprofen are selected. Four or five coded doses of each selected combination are studied for analgesic effectivenss at 20 minutes using an experimental design which permits coding and complete randomization of the separate dosage forms tested. Althogether 35 separate dosage forms are used and each form is represented in each experimental session. The experiments are continued by running experimental sessions with an equal number of mice per group being tested until the total number, N, of mice tested per group is 20. Later, an additional 20 mice/dose are tested and the results are pooled with the original data to yield N=20-40 mice/dose.

SMILES	ED50 at 20 Min. (95% Confidence Limits), Flurbiprofen (flurbiprofen dose (alone or as component of the combination), N = 20-40 mice/dose) [mg/kg]	% MICE BLOCKED (nalbuphine HCl 0 + flurbiprofen 0.4 mg/kg) [%]	% MICE BLOCKED (nalbuphine HCl 0 + flurbiprofen 0.8 mg/kg) [%]	% MICE BLOCKED (nalbuphine HCl 0 + flurbiprofen 1.6 mg/kg) [%]	% MICE BLOCKED (nalbuphine HCl 0 + flurbiprofen 3.2 mg/kg) [%]	% MICE BLOCKED (nalbuphine HCl 2.93 + flurbiprofen 0 mg/kg) [%]	% MICE BLOCKED (nalbuphine HCl 5.85 + flurbiprofen 0 mg/kg) [%]	% MICE BLOCKED (nalbuphine HCl 11.7 + flurbiprofen 0 mg/kg) [%]	% MICE BLOCKED (nalbuphine HCl 23.4 + flurbiprofen 0 mg/kg) [%]	% MICE BLOCKED (nalbuphine HCl 46.8 + flurbiprofen 0 mg/kg) [%]	ED50 at 20 Min. (95% Confidence Limits), Nalbuphine HCl (nalbuphine HCl dose (alone or as component of the combination), N = 20-40 mice/dose) [mg/kg]
CC(C(=O)O)c1ccc(-c2ccccc2)c(F)c1 (stereo not drawn) [Flurbiprofen Only (0:1), 2-fluoro-α-methyl[1,1'-biphenyl]-4-acetic acid]	1.56	5.0	32.5	45.0	87.5	–	–	–	–	–	–
Oc1ccc2c3c1O[C@H]1[C@@H](O)CC[C@@]4(O)[C@@H](C2)N(CC2CCC2)CC[C@]314 [Nalbuphine Only (1:0), (-)-17-(cyclobutylmethyl)-4,5α-epoxymorphinan-3,6α,14-triol]	–	–	–	–	–	12.5	22.5	45.0	67.5	80.0	16.5
